The values that follow come from US12662451B2, “Chemical compounds and uses thereof” (GLAXOSMITHKLINE INTELLECTUAL PROPERTY (NO.4) LIMITED, priority 2023, dated 2026).

Read-outs that look alike come from different tables or passages of the source.

Data set [1] addresses T1, recombinant full-length WRN protein (1-1432) (Homo sapiens, UniProt Q14191).
T1 construct: recombinant full-length WRN protein (1-1432)
As to the kind of experiment: WRN unwinding activity, fluorogenic 384-well assay (Example A). The data set is classed as biochemical. The note with it: WRN unwinding activity, 4 hr; Table 2; read-out: 4 hr UNW pIC50 (converted). A digest of the protocol:
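Read-out is end-point unwinding of a fluorophore/quencher duplex (ex 525, em 598 nm) after 60 min with 200 μM ATP and 12 nM DNA (2× stocks), EDTA stop. Compound first sat 4 h with 200 pM WRN (2× stock) in pH 8.0 Tris buffer; four-parameter fit gives pIC50.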

For data set [2], the system named is SW48 human colorectal cancer cells. In words: Calculated free drug potency in SW48 cell assay, corrected with media free fraction (Example C). The data set is classed as cell-based. The note with it: Homo sapiens, SW48, SW48 pCC50 corrected with measured free fraction in cell assay media. A digest of the protocol: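 Free drug potency derives from correcting SW48 assay concentrations with the unbound fraction in medium. That fraction came from RED against pH 7.4 PBS, 1 μM nominal compound, 4 h at 37 °C, quantified by LC-MS/MS peak area ratios at T=240 versus T=0 min.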

Data set [3] concerns SW48 human colorectal cancer cells (MSI-H cancer cells). As to the kind of experiment: SW48 cell viability, CellTiter-Glo, 120 hours (Example B). The note with it: Homo sapiens. A general note: In ATP-based viability assays light output follows the ATP content of the culture.
Data set [4] is described as follows: Cell culture media unbound percentage and stability by rapid equilibrium dialysis (Example C). The data set is classed as in vitro ADME. The note with it: bovine, cell assay medium (RPMI-1640 with 10% fetal bovine serum), pH 7.4, rapid equilibrium dialysis, 4 hours at 37° C., read-out: Cell Culture Media Binding (% unbound). A digest of the protocol:
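Percent unbound in cell assay medium came from the LC-MS/MS receiver:donor peak area ratio, with stability taken as the 240 min over 0 min ratio. Set-up: 1 μM nominal compound in medium dialysed against pH 7.4 PBS (100 mM phosphate, 150 mM NaCl), 4 h, 37° C, shaken, in triplicate.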
On the technique in general: Equilibrium dialysis compares concentrations on both sides of a semipermeable membrane.

Setting [5] is: SW48, 120 h, read-out: SW48 pCC50, SW48 cell viability, 120 hours incubation (converted), Table 2.
[6] abbreviates: SW48, read-out: SW48 pCC50, measured potency from Example B, as repeated in Table 3 (converted).

T1 sequence (Q14191 whole entry): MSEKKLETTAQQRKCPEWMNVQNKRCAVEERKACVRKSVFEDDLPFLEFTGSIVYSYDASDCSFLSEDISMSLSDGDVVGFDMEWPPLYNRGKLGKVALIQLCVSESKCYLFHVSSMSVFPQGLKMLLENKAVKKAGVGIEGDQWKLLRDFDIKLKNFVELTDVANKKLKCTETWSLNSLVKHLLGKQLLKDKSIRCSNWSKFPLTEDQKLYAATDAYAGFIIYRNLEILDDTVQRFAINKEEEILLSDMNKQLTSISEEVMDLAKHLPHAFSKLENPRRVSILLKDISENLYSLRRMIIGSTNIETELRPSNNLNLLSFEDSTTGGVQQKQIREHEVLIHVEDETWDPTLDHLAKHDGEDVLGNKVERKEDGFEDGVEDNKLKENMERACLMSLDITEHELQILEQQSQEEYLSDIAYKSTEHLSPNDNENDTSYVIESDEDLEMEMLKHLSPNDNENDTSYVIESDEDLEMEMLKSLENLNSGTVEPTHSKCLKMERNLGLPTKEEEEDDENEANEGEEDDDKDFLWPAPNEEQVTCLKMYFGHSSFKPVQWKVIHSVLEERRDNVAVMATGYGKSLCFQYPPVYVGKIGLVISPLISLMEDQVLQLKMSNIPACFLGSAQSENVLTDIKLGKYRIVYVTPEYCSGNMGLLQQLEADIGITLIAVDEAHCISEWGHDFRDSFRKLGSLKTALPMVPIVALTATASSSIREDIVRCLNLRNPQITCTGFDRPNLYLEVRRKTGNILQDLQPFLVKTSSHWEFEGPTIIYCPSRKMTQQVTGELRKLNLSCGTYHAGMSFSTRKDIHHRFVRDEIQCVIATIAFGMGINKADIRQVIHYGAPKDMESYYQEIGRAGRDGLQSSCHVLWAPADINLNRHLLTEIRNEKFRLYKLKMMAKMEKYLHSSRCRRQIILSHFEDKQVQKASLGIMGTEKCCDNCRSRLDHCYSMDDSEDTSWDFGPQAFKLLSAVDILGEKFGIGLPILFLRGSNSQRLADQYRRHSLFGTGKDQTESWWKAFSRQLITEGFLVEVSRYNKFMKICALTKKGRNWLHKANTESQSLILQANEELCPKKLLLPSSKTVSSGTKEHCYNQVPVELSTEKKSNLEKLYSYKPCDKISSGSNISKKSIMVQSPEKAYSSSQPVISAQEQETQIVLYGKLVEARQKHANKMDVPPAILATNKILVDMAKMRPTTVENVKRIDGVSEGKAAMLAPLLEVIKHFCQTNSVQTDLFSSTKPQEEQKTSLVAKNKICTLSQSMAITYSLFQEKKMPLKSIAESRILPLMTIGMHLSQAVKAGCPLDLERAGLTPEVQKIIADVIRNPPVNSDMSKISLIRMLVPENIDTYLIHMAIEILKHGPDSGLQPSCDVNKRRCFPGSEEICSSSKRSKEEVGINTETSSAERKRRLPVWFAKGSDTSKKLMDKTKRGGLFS

Turning to `Cc1nc2cc(S(=O)(=O)N(C)c3ccc([C@H]4CCC[C@@H](C(=O)Nc5ccc(C(F)(F)F)cc5F)[C@@H]4C(=O)O)cc3)cc(Cl)c2n1C` [Example 129, (1R,2S,6R)-2-(4-((7-chloro-N,1,2-trimethyl-1H-benzo[d]imidazole)-5-sulfonamido)phenyl)-6-((2-fluoro-4-(trifluoromethyl)phenyl)carbamoyl)cyclohexane-1-carboxylic acid], in data set [1], the IC50 is 0.02 µM. Besides, the values for the CC50 in data set [2], in data set [3] (setting [5]) and in data set [3] (setting [6]) were 0.00912 µM, 0.631 µM and 0.631 µM, respectively. In addition, in data set [4], the fraction unbound at 4 h, 1 µM is 0.0143.

For the compound `CN(c1ccc([C@H]2CCC[C@@H](C(=O)Nc3ccc(C(F)(F)F)cc3F)[C@@H]2C(=O)O)cc1)S(=O)(=O)c1ccc2c(c1)nc(C1CC1)n2C` [Example 130, (1R,2S,6R)-2-(4-((2-cyclopropyl-N,1-dimethyl-1H-benzo[d]imidazole)-5-sulfonamido)phenyl)-6-((2-fluoro-4-(trifluoromethyl)phenyl)carbamoyl)cyclohexane-1-carboxylic acid], the IC50 in data set [1] was 0.00631 µM. For the same compound, the values for the CC50 in data set [2], in data set [3] (setting [5]) and in data set [3] (setting [6]) were 0.0162 µM, 0.501 µM and 0.501 µM, respectively. The fraction unbound at 4 h, 1 µM in data set [4] came out at 0.0326.

`CC(C)c1nc2cc(S(=O)(=O)N(C)c3ccc([C@H]4CCC[C@@H](C(=O)Nc5ccc(C(F)(F)F)cc5F)[C@@H]4C(=O)O)cc3)ccc2n1C` [Example 132, (1R,2R,6S)-2-((2-fluoro-4-(trifluoromethyl)phenyl)carbamoyl)-6-(4-((2-isopropyl-N, 1-dimethyl-1H-benzo[d]imidazole)-5-sulfonamido)phenyl)cyclohexane-1-carboxylic acid]: in data set [1], the IC50 is 0.0126 µM. In addition, the figures for the CC50 in data set [2], in data set [3] (setting [5]) and in data set [3] (setting [6]) were 0.0219 µM, 0.631 µM and 0.631 µM, respectively. The fraction unbound at 4 h, 1 µM in data set [4] was 0.0349.

Regarding `CCO[C@@H]1C[C@H](c2ccc(N(C)S(=O)(=O)c3ccc4c(c3)nc(N(C)C)n4C)cc2)[C@@H](C(=O)O)[C@H](C(=O)Nc2ccc(C(F)(F)F)cc2F)C1` [Example 139, (1R,2S,4R,6R)-2-(4-((2-(dimethylamino)-N,1-dimethyl-1H-benzo[d]imidazole)-5-sulfonamido)phenyl)-4-ethoxy-6-((2-fluoro-4-(trifluoromethyl)phenyl)carbamoyl)cyclohexane-1-carboxylic acid], the IC50 in data set [1] is 0.00158 µM. Moreover, the CC50 is 0.00513 µM in data set [2], 0.1 µM in data set [3] (setting [5]) and 0.1 µM in data set [3] (setting [6]). In data set [4], the fraction unbound at 4 h, 1 µM came out at 0.0518.

In the case of `CCO[C@@H]1C[C@H](c2ccc(N(C)S(=O)(=O)c3ccc4c(c3)ncn4C)cc2)[C@@H](C(=O)O)[C@H](C(=O)Nc2ccc(C(F)(F)F)cc2F)C1` [Example 140, (1R,2S,4R,6R)-2-(4-((N,1-dimethyl-1H-benzo[d]imidazole)-5-sulfonamido)phenyl)-4-ethoxy-6-((2-fluoro-4-(trifluoromethyl)phenyl)carbamoyl)cyclohexane-1-carboxylic acid], the IC50 in data set [1] is 0.00251 µM. In addition, the CC50 in data set [2] is 0.0158 µM; in data set [3] (setting [5]), 0.158 µM; in data set [3] (setting [6]), 0.158 µM. The fraction unbound at 4 h, 1 µM in data set [4] is 0.101.

As for `CCO[C@@H]1C[C@H](c2ccc(N(C)S(=O)(=O)c3cnc4c(c3)nc(C)n4C)cc2)[C@@H](C(=O)O)[C@H](C(=O)Nc2ccc(C(F)(F)F)cc2F)C1` [Example 141, (1R,2R,4R,6S)-4-ethoxy-2-((2-fluoro-4-(trifluoromethyl)phenyl)carbamoyl)-6-(4-((N,2,3-trimethyl-3H-imidazo[4,5-b]pyridine)-6-sulfonamido)phenyl)cyclohexane-1-carboxylic acid], the IC50 in data set [1] is 0.00316 µM. In addition, the CC50 in data set [2] is 0.0708 µM; in data set [3] (setting [5]), 0.631 µM; in data set [3] (setting [6]), 0.631 µM. The fraction unbound at 4 h, 1 µM in data set [4] was 0.112.

`Cc1nc2cc(S(=O)(=O)N(C)c3ccc([C@H]4CCC[C@@H](C(=O)Nc5ccc(C(F)(F)F)nc5)[C@@H]4C(=O)O)cc3)ccc2n1C` [Example 172, (1R,2R,6S)-2-((6-(trifluoromethyl)pyridin-3-yl)carbamoyl)-6-(4-((N,1,2-trimethyl-1H-benzo[d]imidazole)-5-sulfonamido)phenyl)cyclohexane-1-carboxylic acid]: the IC50 in data set [1] was 0.00398 µM. Moreover, the figures for the CC50 in data set [2], in data set [3] (setting [5]) and in data set [3] (setting [6]) were 0.219 µM, 1.26 µM and 1.26 µM, respectively. In addition, the fraction unbound at 4 h, 1 µM in data set [4] is 0.176.

For `Cc1nc2cc(S(=O)(=O)N(C)c3ccc([C@H]4CCC[C@@H](C(=O)Nc5ccc(C(F)(F)F)cc5)[C@@H]4C(=O)O)cc3)ccc2n1C` [Example 173, (1R,2R,6S)-2-((4-(trifluoromethyl)phenyl)carbamoyl)-6-(4-((N,1,2-trimethyl-1H-benzo[d]imidazole)-5-sulfonamido)phenyl)cyclohexane-1-carboxylic acid], the IC50 in data set [1] is 0.00501 µM. Further, the values for the CC50 in data set [2], in data set [3] (setting [5]) and in data set [3] (setting [6]) were 0.0102 µM, 0.631 µM and 0.631 µM, respectively. Besides, in data set [4], the fraction unbound at 4 h, 1 µM stood at 0.0163.

`Cc1nc2cc(S(=O)(=O)N(C)c3ccc([C@H]4CCC[C@@H](C(=O)N[C@H]5CC[C@H](C(F)(F)F)CC5)[C@@H]4C(=O)O)cc3)ccc2n1C` [Example 177, (1R,2R,6S)-2-(((1r,4R)-4-(trifluoromethyl)cyclohexyl)carbamoyl)-6-(4-((N,1,2-trimethyl-1H-benzo[d]imidazole)-5-sulfonamido)phenyl)cyclohexane-1-carboxylic acid]: in data set [1], the IC50 is 0.00158 µM. The CC50 in data set [2] was 0.372 µM; in data set [3] (setting [5]), 1.58 µM; in data set [3] (setting [6]), 1.58 µM. Also, in data set [4], the fraction unbound at 4 h, 1 µM turned out to be 0.237.

On to `Cc1nc2cc(S(=O)(=O)N(C)c3ccc([C@H]4CCC[C@@H](C(=O)Nc5ccc(C(F)F)cc5F)[C@@H]4C(=O)O)cc3)ccc2n1C` [Example 179, (1R,2R,6S)-2-((4-(difluoromethyl)-2-fluorophenyl)carbamoyl)-6-(4-((N,1,2-trimethyl-1H-benzo[d]imidazole)-5-sulfonamido)phenyl)cyclohexane-1-carboxylic acid], for which, in data set [1], the IC50 is 0.00251 µM. Also, the CC50 in data set [2] is 0.145 µM; in data set [3] (setting [5]), 1 µM; in data set [3] (setting [6]), 1 µM. The fraction unbound at 4 h, 1 µM in data set [4] is 0.146.

As to `Cc1nc2cc(S(=O)(=O)N(C)c3ccc([C@H]4CCC[C@@H](C(=O)N[C@H]5CC[C@H](C(C)C)CC5)[C@@H]4C(=O)O)cc3)ccc2n1C` [Example 180, (1R,2R,6S)-2-(((1r,4R)-4-isopropylcyclohexyl)carbamoyl)-6-(4-((N,1,2-trimethyl-1H-benzo[d]imidazole)-5-sulfonamido)phenyl)cyclohexane-1-carboxylic acid], the IC50 in data set [1] is 0.00398 µM. For the same compound, the CC50 was 0.0224 µM in data set [2], 0.631 µM in data set [3] (setting [5]) and 0.631 µM in data set [3] (setting [6]). Moreover, in data set [4], the fraction unbound at 4 h, 1 µM stood at 0.0357.

For `Cc1nc2cc(S(=O)(=O)N(C)c3ccc([C@H]4CCC[C@@H](C(=O)Nc5ccc(C(C)(C)O)cc5F)[C@@H]4C(=O)O)cc3)ccc2n1C` [Example 181, (1R,2R,6S)-2-((2-fluoro-4-(2-hydroxypropan-2-yl)phenyl)carbamoyl)-6-(4-((N,1,2-trimethyl-1H-benzo[d]imidazole)-5-sulfonamido)phenyl)cyclohexane-1-carboxylic acid], the IC50 in data set [1] is 0.00158 µM. Also, the CC50 was 0.603 µM in data set [2], 2 µM in data set [3] (setting [5]) and 2 µM in data set [3] (setting [6]). For the same compound, the fraction unbound at 4 h, 1 µM in data set [4] turned out to be 0.303.

As for `Cc1nc2cc(S(=O)(=O)N(C)c3ccc([C@H]4CCC[C@@H](C(=O)Nc5ccc6c(c5)CC(F)(F)C6)[C@@H]4C(=O)O)cc3)ccc2n1C` [Example 194, (1R,2R,6S)-2-((2,2-difluoro-2,3-dihydro-1H-inden-5-yl)carbamoyl)-6-(4-((N,1,2-trimethyl-1H-benzo[d]imidazole)-5-sulfonamido)phenyl)cyclohexane-1-carboxylic acid], the IC50 in data set [1] was 0.00794 µM. For the same compound, the CC50 in data set [2] is 1.15 µM; in data set [3] (setting [5]), 10 µM. Moreover, the fraction unbound at 4 h, 1 µM in data set [4] stood at 0.114.

For the compound `CCc1ccc(NC(=O)[C@@H]2CCC[C@H](c3ccc(N(C)S(=O)(=O)c4ccc5c(c4)nc(C)n5C)cc3)[C@H]2C(=O)O)cc1` [Example 196, (1R,2R,6S)-2-((4-ethylphenyl)carbamoyl)-6-(4-((N,1,2-trimethyl-1H-benzo[d]imidazole)-5-sulfonamido)phenyl)cyclohexane-1-carboxylic acid], in data set [1], the IC50 is 0.00316 µM. Moreover, the CC50 in data set [2] is 0.0955 µM; in data set [3] (setting [5]) it was 1.58 µM; in data set [3] (setting [6]), 1.58 µM. Besides, the fraction unbound at 4 h, 1 µM in data set [4] amounted to 0.0606.
